# Laboratory results reported in patent US20030229044A1, “Use of statins and other immunomodulatory agents in the treatment of autoimmune disease” (priority 2002, published 2003).
# “Also recorded” adds a separate entry of the source.
# Assays:
# [1] = system: MBP Ac1-11-induced EAE in MBP Ac1-11 TCR Tg mice; experiment: MBP Ac1-11-induced acute EAE in MBP Ac1-11 Tg mice; format: in vivo, mouse
# Source text: (§1) Animals. Female SJL/J, B10.PL and C57BL/6 mice (8 to 12-week-old) were purchased from the Jackson Laboratory (Bar Harbor, Me.). MBP Ac 1-11 transgenic (tg) TCR mice were backcrossed with B10.PL mice to obtain susceptibility to EAE. All animal protocols were approved by the Division of comparative Medicine at Stanford and in accordance with the National Institutes of Health guidelines.
# (§2) Peptides. Peptides were synthesized on a peptide synthesizer (model 9050; MilliGen, Burlington, Mass.) by standard 9-fluorenylmethoxycarbonyl chemistry. Peptides were purified by HPLC. Structures were confirmed by amino acid analysis and mass spectroscopy.
# EAE Induction. […] All peptides were dissolved in PBS at a concentration of 2 mg/ml and emulsified with an equal volume of CFA, which consists of incomplete Freund's adjuvant supplemented with 4 mg/ml heat-killed mycobacterium tuberculosis H37Ra (Difco Laboratories, Detroit, Mich.). Mice were injected subcutaneously with 0.1 ml of the peptide emulsion. […] Mice were clinically scored as follows: 0, no paralysis; 1, tail weakness or paralysis; 2, hindlimb weakness or paralysis; 3, hindlimb paralysis and forelimb weakness; 4, hindlimb and forelimb paralysis; and 5, moribund or death. […]
# [2] = system: lymph node cells and spleen cells from EAE donors; experiment: Cytokine profile determination by ELISA; format: cell-based, mouse
# Method: Cytokine Profile Determination. Lymph node cells and spleen cells from EAE donors were stimulated in vitro (2.5×10^6 cells/ml) in 24-well plates with or without the encephalogenic peptide or with […] as positive control. Cell culture supernatants were collected at different time points for measurements of cytokine levels: 48 hours for IL-2, 72 hours for IFN-γ and TNF α, and 120 hours for IL-4 and IL-10. Cytokine levels were determined using specific ELISA kits for the corresponding cytokines according to the manufacturers protocols (PharMingen, San Diego, Calif., USA).
# [3] = system: MHC II expression (CIITA p IV gene); conditions: through the effect on the CIITA p IV gene; cited from earlier work
# [4] = system: MOG p35-55-induced EAE in C57BL/6 mice; experiment: MOG p35-55-induced chronic EAE in C57BL/6 mice; format: in vivo, mouse
# Source text: as §1, §2
# (§3) EAE Induction. Relapsing remitting EAE was induced in SJL/J mice with 100 μg of PLP139-151 peptide, chronic progressive EAE was induced either in C57BL/6 or MBP Ac1-11 TCR Tg mice with 100 μg of MOG35-55 peptide or 100 μg of MBP Ac1-11 peptide, respectively. All peptides were dissolved in PBS at a concentration of 2 mg/ml and emulsified with an equal volume of CFA, which consists of incomplete Freund's adjuvant supplemented with 4 mg/ml heat-killed mycobacterium tuberculosis H37Ra (Difco Laboratories, Detroit, Mich.). […] Mice were clinically scored as follows: 0, no paralysis; 1, tail weakness or paralysis; 2, hindlimb weakness or paralysis; 3, hindlimb paralysis and forelimb weakness; 4, hindlimb and forelimb paralysis; and 5, moribund or death. […]
# [5] = system: STAT6; experiment: Western blot for STAT6 phosphorylation in draining lymph node cells; format: in vivo, mouse; conditions: lymph nodes of SJL/J mice, 1 mg/kg and 10 mg/kg, 10 days after EAE induction; PBS: none detectable
# Method: All procedures were handled on ice. As a positive control, lymph node cells from naive mice were isolated and cultured for one hour with mouse recombinant IL-4 (10 ng/ml) or INF-γ (100 units/ml), for STAT6 and STAT4 expression respectively. Protein concentrations were determined by BCA protein assay (Pierce). Lysate was added to 3×SDS loading buffer (Cell Signaling Technology) with 40 mM DTT. Products were separated by electrophoresis on a 4-15% SDS-PAGE gradient gel (BioRad). Pre-stained markers (Invitrogen) were used to determine MW. Gels were blotted to PVDF membranes at 100 V in 25 mM Tris, 192 mM glycine and 20% (v/v) methanol, then blocked 1 hr at RT with Tris-buffered saline (TBS) containing 0.1% Tween-20 and 5% nonfat dry milk. After washing in TBS and 0.1% Tween 20, membranes were hybridized overnight at 4° C. with anti-phospho-STAT6 Antibody or anti-phospho-STAT4 antibody (Zymed, South San Francisco, Calif.) diluted 1:1000 in TBS, 0.1% Tween 20 and 5% BSA, the membranes were then processed by ECL Plus prebetween protocol (Amersham Life Sciences) for visualization of the bands by chemiluminescence. […]
# [6] = system: PLP p139-151-stimulated spleen and lymph node cells; experiment: Ag specific ex-vivo T cell proliferation assay; format: cell-based, mouse
# Source text: Ag specific ex-vivo T cell proliferation assay.
# [7] = system: PLP p139-151-induced EAE in SJL/J mice; experiment: PLP p139-151-induced chronic relapsing EAE in SJL/J mice; format: in vivo, mouse
# Source text: as §1, §2, §3
# [8] = system: microglia and astrocytes; conditions: cited from earlier work
# [9] = system: EAE in Lewis rats; experiment: MBPp85-99-induced EAE in Lewis rats, ordered peptides; format: in vivo, rat; conditions: single intraperitoneal dose of 0.5 mg peptide on day of mean disease onset
# Method: FIG. 8 is a graph depicting the prevention of EAE in rats treated with ordered peptides. […] Animals were injected with an emulsion of 0.1 mg of MBPp85-99 in complete Freund's adjuvant for EAE induction. Ten days later, when the clinical manifestations of disease became apparent, a single intra peritoneal dose of peptide {SEQ ID NO:4} […] (squares), {SEQ ID NO:5} […] (triangles), or PBS (circles) was administered. Results are expressed as mean disease score of groups of six animals.
# Animals. Female Lewis rats (6-8 weeks old), were purchased from Harlan Sprague Dawley (Indianapolis, Ind.)
# Peptides. For immunization and disease reversal, peptides were synthesized on a peptide synthesizer (model 9050: MilliGen, Burlington, Mass.) by standard 9-fuorenylmethoxycarbonyl chemistry. Peptides were purified by HPLC. Structure was confirmed by amino acid analysis and mass spectroscopy. Peptides used for the experiments were: {SEQ ID NO:11} […] (MBPp85 99), {SEQ ID NO:4} […], {SEQ ID NO:5} […].
# EAE induction. […] Rats were injected subcutaneously with 0.1 mi of the peptide emulsion.
# EAE treatment. Rats previously immunized with MBPp85-99 for EAE induction were scored from day eight after peptide injection. On the day of mean disease onset, animals were injected intraperitoneally with a solution of 0.5 mg of peptide in PBS (one dose of 0.25 ml).
# [10] = system: NOD mice; conditions: as proteins, under tolerizing conditions; cited from earlier work
# [11] = ELISA, SJL/J mice, 1 and 10 mg/kg
compound,measurement,setting,value
CC(C)c1c(C(=O)Nc2ccccc2)c(-c2ccccc2)c(-c2ccc(F)cc2)n1CC[C@@H](O)C[C@@H](O)CC(=O)O [atorvastatin],acute EAE progression,[1],successfully prevented acute EAE progression
same,secretion of IL-10,"[2]; ELISA, SJL/J mice",observed at the higher treatment dose
same,IL-4 production,[2]; [11],induced at both treatment doses
same,Production of IL-2,[2]; [11],"reduced, although to a much greater extent in mice treated with 10 mg/kg"
same,secretion of IFN-γ,"[2]; ELISA, SJL/J mice, both treatment doses",dramatic reduction
same,Th2 bias (proliferation and cytokines),[2]; repeated in C57BL/6 and MBP Ac1-11-specific transgenic mice,promoted an almost identical Th2 bias
same,expression of MHC II,[3],could inhibit the expression of MHC II
same,EAE (mean EAE score),"[4]; daily oral 1 mg/kg or 10 mg/kg starting at the time of EAE onset, C57Bl/6 female mice",suppressed EAE induction
same,EAE (mean EAE score),"[4]; treatment after onset, C57Bl/6 mice",ameliorated EAE
same,phosphorylated STAT6,[5],phosphorylated STAT6 is seen
same,PLP p139-151-specific proliferative responses,"[6]; 3H-thymidine incorporation, SJL/J mice treated with 1 or 10 mg/kg",suppressed in a dose-related fashion
same,cell death,[6]; in vitro cultures of cells from treated mice,not observed increased cell death
same,relapsing EAE (mean EAE score),[7]; treatment at onset,effective in prevention of relapsing EAE
same,ongoing relapsing EAE (mean EAE score),[7]; treatment begun after recovery from acute EAE,reversal of ongoing relapsing EAE
CC[C@H](C)C(=O)O[C@H]1C[C@@H](C)C=C2C=C[C@H](C)[C@H](CC[C@@H]3C[C@@H](O)CC(=O)O3)[C@H]21 [lovastatin],production of iNOS and proinflammatory cytokines,[8],"inhibited production of nitric oxide synthase (iNOS) and proinflammatory cytokines (TNFα, IL-1β and IL-6)"
EYYKEYYKEYYK [ordered peptide with repeated motif EYYK],EAE in Lewis rats (mean disease score),[9],effective in preventing and treating experimental autoimmune encephalomyelitis; also recorded: effectively prevent and treat EAE in Lewis rats; also recorded: prevents the development of EAE
insulin,diabetes in NOD mice,[10],prevents disease
